Measured values from patent US8106055B2, “Substituted amide compounds” (Gruenenthal GmbH, priority 2007, dated 2012).

Experiments:
human μ opiate receptor = target: T1, human μ opiate receptor (Homo sapiens, UniProt P35372); experiment: Affinity for the human μ opiate receptor ([3H]-naloxone displacement, CHO-K1 receptor membrane preparation, SPA); format: binding; details: for μ (binding on the μ opioid receptor, % inhibition): test concentration of 1 μM; for inhibition at 1 µM: 1.5 h, read-out: μ receptor
T1 construct: purchased PerkinElmer Life Sciences, Zaventem, Belgium RB-HOM; host or cells: CHO-K1 cells (membrane preparation)
T1 sequence (P35372 whole entry): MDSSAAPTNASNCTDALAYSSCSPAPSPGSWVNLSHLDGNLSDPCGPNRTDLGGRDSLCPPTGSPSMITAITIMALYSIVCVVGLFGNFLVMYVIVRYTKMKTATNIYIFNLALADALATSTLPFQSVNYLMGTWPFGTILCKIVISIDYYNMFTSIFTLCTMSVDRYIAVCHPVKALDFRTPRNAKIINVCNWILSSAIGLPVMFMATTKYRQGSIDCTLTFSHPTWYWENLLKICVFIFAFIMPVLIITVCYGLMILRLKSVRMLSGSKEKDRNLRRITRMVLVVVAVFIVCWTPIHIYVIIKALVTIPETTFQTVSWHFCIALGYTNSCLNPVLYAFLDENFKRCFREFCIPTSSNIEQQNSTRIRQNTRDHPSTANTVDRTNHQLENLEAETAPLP
Method in brief: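 At 1 μmol/l, compounds were scored for % displacement of 1 nmol/l [3H]-naloxone from CHO-K1-expressed human μ opiate receptor in a homogeneous SPA format (90 min, room temperature).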

[1] = target: T2, serotonin (5-HT) reuptake (Rattus norvegicus, UniProt P31652); experiment: Inhibition of serotonin (5HT) reuptake in synaptosomes from rat brain; format: biochemical; details: for 5-HT (inhibition of reuptake of serotonin, % inhibition): test concentration of 10 μM
T2 construct: synaptosomes are freshly isolated from areas of the rat brain; from tissue; host or cells: rat brain synaptosomes (P2 fraction)
T2 sequence (P31652 whole entry): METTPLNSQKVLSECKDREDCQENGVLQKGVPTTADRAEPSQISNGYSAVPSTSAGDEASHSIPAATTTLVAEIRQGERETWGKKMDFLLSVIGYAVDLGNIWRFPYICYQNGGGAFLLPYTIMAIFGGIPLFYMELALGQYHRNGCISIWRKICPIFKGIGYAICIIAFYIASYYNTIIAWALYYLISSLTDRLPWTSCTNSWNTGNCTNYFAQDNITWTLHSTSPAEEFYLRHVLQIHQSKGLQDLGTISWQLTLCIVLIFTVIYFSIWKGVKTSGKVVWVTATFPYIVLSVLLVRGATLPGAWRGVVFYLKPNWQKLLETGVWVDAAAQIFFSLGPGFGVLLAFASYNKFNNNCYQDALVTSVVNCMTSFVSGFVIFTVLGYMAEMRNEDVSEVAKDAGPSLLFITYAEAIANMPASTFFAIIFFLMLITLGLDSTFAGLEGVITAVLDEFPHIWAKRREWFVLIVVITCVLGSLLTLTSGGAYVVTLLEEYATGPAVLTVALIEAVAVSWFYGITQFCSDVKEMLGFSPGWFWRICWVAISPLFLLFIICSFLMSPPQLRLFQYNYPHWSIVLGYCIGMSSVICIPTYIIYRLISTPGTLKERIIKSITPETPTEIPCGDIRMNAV
Method in brief: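 Compounds screened at 10 μM and reported as percent inhibition of serotonin uptake. Uptake measured in a freshly prepared P2 synaptosomal fraction from rat brain.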

[2] = Table 2, test concentration 1 μM
[3] = Table 2, test concentration 10 μM

SMILES	μ (binding on the μ opioid receptor, % inhibition) (human μ opiate receptor) [%]	5-HT (inhibition of reuptake of serotonin, % inhibition) [1] [%]	further results
COc1cc(C)c(S(=O)(=O)N(C)CCOCC(=O)NC2CCC(C(c3cccc(F)c3)N(C)C)CC2)c(C)c1 (centres unmarked) [Example 228]	76	85	–
CN(C)C(c1cccc(F)c1)C1CCC(CCNC(=O)COCCN(C)S(=O)(=O)c2ccc(F)cc2)CC1 (centres unmarked) [Example 218]	82	101	–
CN(C)C(c1ccccc1)C1CCC(NC(=O)COCC2CCCN2S(=O)(=O)c2c(Cl)cc(Cl)cc2Cl)CC1 (centres unmarked) [Example 611, N-[4-(Dimethylaminophenylmethyl)-cyclohexyl]-2-[1-(2,4,6-trichlorobenzenesulfonyl)-pyrrolidin-2-ylmethoxy]-acetamide]	–	–	inhibition at 1 µM (human μ opiate receptor; [2]): 93%; 5-HT reuptake [1, 3]: 84 % inhibition
CCN(CCOCC(=O)NCCC1CCC(C(c2cccc(F)c2)N(C)C)CC1)S(=O)(=O)c1c(C)cc(OC)c(C)c1C (centres unmarked) [Example 209]	85	94	–
CN(C)C(c1cccc(F)c1)C1CCC(NC(=O)COCCN(C)S(=O)(=O)c2ccc(Cl)cc2Cl)CC1 (centres unmarked) [Example 217]	89	85	–
COc1ccc(S(=O)(=O)N2CCCCC2COCC(=O)NC2CCC(C(c3cccs3)N(C)C)CC2)cc1OC (centres unmarked) [Example 261]	72	85	–
Cc1ccc(S(=O)(=O)N2CCC(OCC(=O)NCCC3CCC(C(c4cccc(F)c4)N(C)C)CC3)C2)cc1 (centres unmarked) [Example 216]	72	87	–
CN(C)C(c1ccc(Cl)cc1)C1CCC(CNC(=O)COCCN(C)S(=O)(=O)c2c(Cl)cccc2Cl)CC1 (centres unmarked) [Example 207]	77	72	–
Cc1cc(C)c(S(=O)(=O)N2CCC(OCC(=O)NCCC3CCC(C(c4cccc(F)c4)N(C)C)CC3)C2)c(C)c1 (centres unmarked) [Example 264]	77	82	–
CN(C)C(c1ccccc1)C1CCC(CNC(=O)COCC2CCCN(S(=O)(=O)c3ccccc3)C2)CC1 (centres unmarked) [Example 129, N((4((dimethylamino)(phenyl)methyl)cyclohexyl)methyl)-2-((1-(phenylsulfonyl)piperidin-3-yl)methoxy)acetamide]	89	95	–
CN(C)C(c1ccccc1)C1CCC(NC(=O)COC2CCCN(S(=O)(=O)c3c(Cl)cc(Cl)cc3Cl)C2)CC1 (centres unmarked) [Example 608, N-[4-(dimethylaminophenylmethyl)-cyclohexyl]-2-[1-(2,4,6-trichlorobenzenesulfonyl)-piperidin-3-yloxy]-acetamide]	–	–	inhibition at 1 µM (human μ opiate receptor; [2]): 89%; inhibition at 10 µM ([1]; Table 2, test concentration 10 μM, read-out: 5-HT reuptake): 81%
CN(C)C(c1ccccc1)C1CCC(NC(=O)COCC2CCCN2S(=O)(=O)c2c(Cl)cc(Cl)cc2Cl)CC1 (centres unmarked) [Example 613, N-[4-(Dimethylaminophenylmethyl)-cyclohexyl]-2-[1-(2,4,6-trichlorobenzenesulfonyl)-pyrrolidin-2-ylmethoxy]-acetamide]	–	–	μ receptor (human μ opiate receptor; [2]): 90 % inhibition; 5-HT reuptake [1, 3]: 62 % inhibition
COc1ccc(S(=O)(=O)N2CCCCC2CCOCC(=O)NCC2CCC(C(c3cccc(F)c3)N(C)C)CC2)cc1 (centres unmarked) [Example 203]	83	93	–
Cc1ccc(S(=O)(=O)N(C)CCOCC(=O)NC2CCC(C(c3cccc(F)c3)N(C)C)CC2)cc1 (centres unmarked) [Example 226]	74	91	–
COc1cc(C)c(S(=O)(=O)N2CCC(OCC(=O)NC3CCC(C(c4cccc(F)c4)N(C)C)CC3)C2)c(C)c1 (centres unmarked) [Example 251]	77	98	–
COc1ccc(S(=O)(=O)N2CCCC2COCC(=O)NC2CCC(C(c3cccc(F)c3)N(C)C)CC2)cc1 (centres unmarked) [Example 268]	70	92	–
